Measurements from EP1255553B1 (Stegram Pharmaceuticals Limited, priority 2000, dated 2001).
Entries after “also recorded” stand apart in the source; their conditions may differ. Like-named read-outs stand apart in the source and are kept apart here.

Experiments:
[1] = system: oestrogen response element driven GFP gene in MCF-7 breast cancer cell line; assay: Oestrogen reporter plasmid xTG (GFP) transcriptional activity in MCF-7 cells; type: cell-based; settings: compound at 10^-6M plus E2 at 10^-8M; MCF-7 transiently transfected with xTG for three days
From the text: XTG consists of a oestrogen response element. Upstream of a simple TATA promoter which together drive transcription of the GFP gene from the jellyfish Aequorea victoria. The xERE sequence is made up of the following - GGTCA CAG TGACC […] (SEQUENCE ID NO: 1)
The GFP gene - from GFPuv was supplied by Clontech (Clontech Laboratories, Inc., 1020 East Meadow Circle, Palo Alto, CA 94303-4230, USA)
E2 was used at a concentration of 10^-8M while all other compounds were used at 10^-6M. All ligands were added to cell media during transfection.

[2] = cited from earlier work
[3] = system: MCF-7 cells; assay: Thymidine labeling of MCF-7 cells; type: cell-based
Protocol: MCF-7 cells were plated out in multiwell dishes and grown for 24 hours in serum free medium (MEM). […] Radiolabelled thymidine was added to each well ([…]) and cells were then cultured for a further 24 hours. At the end of this period the medium was aspirated and the cultured cells were rinsed 3-times with cold buffer solution(50mm Tris-HCl, pH 7.4). The cells were then dissolved in 1ml of 0.1N NaOH and 0.5ml of this solution was mixed with 2.5ml of Scintillation cocktail and the intracellular radioactivity of ^3H was measured with a liquid scintillation counter.

[4] = system: oestrogen receptor isoforms; assay: Isoelectric focusing (IEF) of 3H oestradiol binding to oestrogen receptor isoforms in tissue cytosol; set-up: species or system rat; settings: Trilostane 10 micromolar, 3H oestradiol 5nM
[5] = system: rat uterine oestrogen receptors; assay: Scatchard analysis of tritiated oestradiol binding, rat uterus; settings: Figure 2, Trilostane at 10micromolar
Protocol: (§1) Using tissue, snap frozen at time of excision, cytosols were prepared by dismembration using a Braun II Mikrodismembrator. Frozen tissue was minced and pulverised. The resultant powder was resuspended in 1-mm phosphate buffer containing 10% (v/v) glycerol, 1.5mm EDTA, 10mM monothioglycerol, 20mM Sodium molybdate, aprotinin (1ug/ml) and STI (1ug/ml) and phenyl methyl sulfonyl fluoride (30ug/ml) at pH 7.4 by stirring for 15 minutes at 4°C. This suspension was centrifuged at 100,000g for 1 hour at 4°C and the supernantant was used for competition analysis.
(§2) After overnight incubation at 4°C assay tubes were incubated with DCC as above to remove free steroid and aliquots of the resultant supernatant were incubated with toluene based scintillant and counted on a Scintillation Counter. Data obtained was analysed according to the method of Scatchard.

[6] = system: rat prostate oestrogen receptors; assay: Scatchard analysis of tritiated oestradiol binding, rat prostate; set-up: dose or concentration left out as unconfirmed; settings: Figure 3
Protocol: as §1, §2

[7] = system: oestrogen receptor isoforms in rat uterus; assay: Tritiated tamoxifen binding to oestrogen receptor isoforms (IEF); settings: Figure 5, test compound 10 micromolar, tritiated tamoxifen 10^-6M
Protocol: as §1
After overnight incubation free steroid was separated from bound by incubating with dextran coated charcoal (0.25% w/v charcoal, 0.025% w/v Dextran T70 in 10mM Tris 1.5mM EDTA at pH 7.4) for 10 mins at 4°C. The DCC was pelleted by centrifugation (10,000g for 10 mins) and aliquots of the supernatant were used for IEF separation.
Isoelectric focusing (IEF) gels were cast in slabs of size 125 x 260 mm and separation was conducted along either the short side (short run) or the long side (long run) of the gel. […]
After DCC extraction, aliquots (270ul) of the radioactive supernatant (3 mg protein/ml) derived from SSD assay were loaded near the cathode. […] After the run the gels were cut into 2.5 mm slices and each slice was incubated with 5ml scintillation cocktail for 24h at room temperature and radioactivity assayed.

[8] = advanced breast cancer, cited from earlier work
[9] = molecular target: oestrogen receptor present in MCF-7 breast cancer cell extracts / oestrogen response element (Homo sapiens, UniProt P03372); assay: Electrophoretic mobility shift assay (EMSA) of ER-ERE complex formation in extracts of treated MCF-7 cells; type: cell-based; settings: MCF7, 24 h, read-out: ER-ERE complex formation
oestrogen receptor present in MCF-7 breast cancer cell extracts / oestrogen response element, sequence (P03372 whole entry): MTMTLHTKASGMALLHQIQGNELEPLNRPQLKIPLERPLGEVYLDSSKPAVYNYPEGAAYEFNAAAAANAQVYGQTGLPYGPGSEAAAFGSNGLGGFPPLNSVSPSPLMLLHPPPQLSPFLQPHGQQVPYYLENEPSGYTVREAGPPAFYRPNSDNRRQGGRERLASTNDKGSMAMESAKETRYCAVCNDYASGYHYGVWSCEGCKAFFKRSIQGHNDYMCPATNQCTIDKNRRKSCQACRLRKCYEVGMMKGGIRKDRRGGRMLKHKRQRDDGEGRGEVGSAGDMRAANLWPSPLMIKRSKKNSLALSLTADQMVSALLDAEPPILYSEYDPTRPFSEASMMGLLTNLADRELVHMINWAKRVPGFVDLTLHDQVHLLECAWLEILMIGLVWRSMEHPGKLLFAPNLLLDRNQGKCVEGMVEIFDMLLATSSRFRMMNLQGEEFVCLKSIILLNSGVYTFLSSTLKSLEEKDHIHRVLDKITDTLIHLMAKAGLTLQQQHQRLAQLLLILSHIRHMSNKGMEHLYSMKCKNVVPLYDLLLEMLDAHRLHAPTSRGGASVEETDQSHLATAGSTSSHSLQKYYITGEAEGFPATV

CC/C(=C(\c1ccccc1)c1ccc(OCCN(C)C)cc1)c1ccccc1 [tamoxifen]
E2-driven transactivation / transcription of GFP [1]: reduced E2-driven transactivation
reduction of the risk of invasive breast cancer ([2]; all women, two-sided P<.00001): 49%
occurrence of oestrogen receptor-negative tumors ([2]; in vivo): no difference
reduction of the occurrence of oestrogen receptor-positive tumors ([2]; in vivo): 69%
cumulative incidence of invasive breast cancer ([2]; through 69 months of follow-up, tamoxifen group): 22.0 per 1000 women
reduction of the risk of noninvasive breast cancer ([2]; two-sided P<.002): 50%
decreased risk of invasive breast cancer ([2]; women aged 49 years or younger): 44%
decreased risk of invasive breast cancer ([2]; women aged 50-59 years): 51%
decreased risk of invasive breast cancer ([2]; women aged 60 years or older): 55%
decreased risk of invasive breast cancer ([2]; women with a history of atypical breast hyperplasia): 86%
decreased risk of invasive breast cancer ([2]; women with a history of breast lobular carcinoma in situ): 56%

O=C(c1ccc(OCCN2CCCCC2)cc1)c1c(-c2ccc(O)cc2)sc2cc(O)ccc12 [raloxifene]
E2-driven transactivation / transcription of GFP [1]: reduced E2-driven transactivation

C[C@]12CC[C@@H]3c4ccc(O)cc4CC[C@H]3[C@@H]1CC[C@@H]2O [oestradiol]
activation at 0.01 µM ([3]; Homo sapiens, MCF7, 24 h, read-out: increase in thymidine labeling compared to control): 15%

C[C@]12CC[C@H]3[C@@H](CC[C@@]45O[C@@H]4C(O)=C(C#N)C[C@]35C)[C@@H]1CC[C@@H]2O [Trilostane, (4α,5α-17β)-4,5-epoxy-3,17-dihydroxyandrost-2-ene-2carbonitrile]
binding of oestrogen onto the oestrogen receptor isoforms [4]: modulated the binding of oestrogen onto all the oestrogen receptor isoforms but principally onto the pI 6.3 isoform
concentration of total receptor (X axis intercept of Scatchard plot) [5]: increases the apparent affinity of oestrogen binding (given by the slope of the regression lines) and the concentration of total receptor
concentration of total receptor (x axis intercept of Scatchard plot) [6]: increases the concentration of total receptor; also recorded: an increase in receptor concentration
tritiated tamoxifen binding to oestrogen receptor isoforms [7]: increased tritiated tamoxifen binding to oestrogen receptor isoforms
E2-driven transactivation / transcription of GFP [1]: reduced transcription of GFP
blocking of the oestradiol-induced increase in thymidine labeling ([3]; E2+T: Oestradiol 10^-8 M and Trilostane 10µM, 24 hours): completely blocked
inhibition at 10 µM ([3]; Homo sapiens, MCF7, 24 h, read-out: inhibition of thymidine uptake of MCF-7 cells compared with control): 31%
response rate ([8]; Ingle J.N. et al 1990): 38%
response rate ([8]; Williams C.J. et al 1993): 29%

C[C@]12CC[C@H]3[C@@H](CC[C@@]45O[C@@H]4C(=O)[C@H](C#N)C[C@]35C)[C@@H]1CCC2=O [keto-trilostane]
tritiated tamoxifen binding to oestrogen receptor isoforms [7]: increased tritiated tamoxifen binding to oestrogen receptor isoforms
activity at 10 µM [9]: 68%
